The values below come from publication PMC7182600 (Influenza and Other Respiratory Viruses, 2020).

The target of this assay is NA of rPhuket3073/Yamagata (wild‐type) (Influenza B virus, UniProt A0A1S5RAG6). Format: biochemical. Conditions: read-out: IC50 values of NA inhibitors.
Sequence of NA of rPhuket3073/Yamagata (wild‐type) (A0A1S5RAG6 entry or part of it, added parts left off): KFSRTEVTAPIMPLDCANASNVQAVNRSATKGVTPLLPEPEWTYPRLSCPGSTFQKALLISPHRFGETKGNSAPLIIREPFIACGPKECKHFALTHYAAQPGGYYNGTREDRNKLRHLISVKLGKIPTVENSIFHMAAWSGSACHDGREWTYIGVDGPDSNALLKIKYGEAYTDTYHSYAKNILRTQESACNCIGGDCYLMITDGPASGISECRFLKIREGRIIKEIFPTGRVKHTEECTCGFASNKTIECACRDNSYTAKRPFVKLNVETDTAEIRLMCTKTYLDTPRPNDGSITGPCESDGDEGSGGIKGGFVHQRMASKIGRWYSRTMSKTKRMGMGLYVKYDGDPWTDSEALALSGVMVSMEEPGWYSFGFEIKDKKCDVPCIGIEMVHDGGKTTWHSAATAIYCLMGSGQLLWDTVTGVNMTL

For Peramivir, the IC50 (usually the concentration that inhibits the measured activity by half) amounted to 0.5 nM.
